Test system: TNF-α-induced IL-6 production in normal human skin fibroblast-derived CCD-1059Sk cells
Assay: Test for measurement of inhibitory activity against TNF-α-induced IL-6 production
Format: cell-based
Conditions: Homo sapiens, CCD-1059Sk, 16 h, test compound at 10 μM, TNF-α stimulation 16 hours, inhibition ratio of 100% or more is indicated as 100%
Experimental: 1. Test for Measurement of Inhibitory Activity Against IL-6 Production
An inhibitory effect on TNF-α-induced IL-6 production in normal human skin fibroblast-derived CCD-1059Sk cells (ATCC No. CRL-2072) was evaluated. The amount of IL-6 was determined by the homogeneous time-resolved fluorescence method using HTRF™ Human IL-6 kit (Cat. No. 62IL6PEB, manufactured by CIS-Bio international, Inc.). Specific test methods will be described below.
(Preparation of Test Compound Solution)
After a test compound was dissolved in dimethyl sulfoxide, the resulting solution was diluted with D-MEM medium containing 0.1% heat-inactivated fetal bovine serum, 0.1 mM MEM non-essential amino acid solution, 100 U/mL penicillin and 100 μg/mL streptomycin (hereinafter referred to as “medium”), whereby a 40 μM test compound solution was prepared.
(Test Method and Measurement Method)
1) CCD-1059Sk cells prepared at a density of 3×10^5 cells/mL were inoculated in a 384-well plate in an amount of 10 μL per well such that the cell density was 3×10^3 cells/well.
2). After the plate was incubated at 37° C. for several hours in a CO2 incubator, 5 μL of the test compound was added to each well.
3) After the plate was incubated at 37° C. for 1 hour in a CO2 incubator, 5 μL of a 40 ng/mL TNF-α solution was added to each well.
4) After the plate was incubated at 37° C. for 16 hours in a CO2 incubator, 10 μL of a cryptate-labeled anti-IL-6 antibody and an XL665-labeled anti-IL-6 antibody containing potassium fluoride was added to each well.
5) After the plate was incubated at room temperature for several hours, a fluorescence intensity ratio (665 nm/620 nm) was determined for each well using a multimode plate reader Analyse™ HT (manufactured by Molecular Device Corporation) and Criterion Host software version 2.00 (manufactured by Molecular Device Corporation), and then, the amount of IL-6 was calculated.
6) The same procedures as in the above 1) to 5) were performed except that 0.4% dimethyl sulfoxide was added in place of the test compound, and the obtained result was designated as the control.
7) The same procedures as in the above 1) to 5) were performed except that 0.4% dimethyl sulfoxide and the medium were added in place of the test compound and the TNF-α solution, respectively, and the obtained result was designated as the background.
(Calculation Formula of IL-6 Production Inhibition Ratio)
An IL-6 production inhibition ratio (%) was calculated from the following formula. IL-6 Production Inhibition Ratio (%)=100×{1−[(Amount of IL-6 for Test Compound)−(Amount of IL-6 for Background)/(Amount of IL-6 for Control)−(Amount of IL-6 for Background)]} (Evaluation Results)

Row | SMILES | inhibition at 10 µM [%]
1 | NC(=O)Nc1[nH]c(-c2ccc(Br)cc2)cc1C(N)=O [Compound 1-1, 2-Aminocarbonylamino-5-(4-bromophenyl)pyrrole-3-carboxamide] | 94
2 | NC(=O)Nc1[nH]c(-c2ccccn2)cc1C(N)=O [Compound 1-2, 2-Aminocarbonylamino-5-(pyridin-2-yl) pyrrole-3-carboxamide] | 85
3 | NC(=O)Nc1[nH]c(-c2ccccc2)cc1C(N)=O [Compound 1-4, 2-Aminocarbonylamino-5-phenylpyrrole-3-carboxamide] | 88
4 | NC(=O)Nc1[nH]c(-c2ccc(-c3ccccc3)cc2)cc1C(N)=O [Compound 1-5, 2-Aminocarbonylamino-5-(4-biphenyl) pyrrole-3-carboxamide] | 67
5 | NC(=O)Nc1[nH]c(-c2cccc([N+](=O)[O-])c2)cc1C(N)=O [Compound 1-6, 2-Aminocarbonylamino-5-(3-nitrophenyl) pyrrole-3-carboxamide] | 92
6 | Cc1ccc(-c2cc(C(N)=O)c(NC(N)=O)[nH]2)cc1 [Compound 1-11, 2-Aminocarbonylamino-5-(4-methylphenyl) pyrrole-3-carboxamide] | 88
7 | NC(=O)Nc1[nH]c(-c2ccccc2C(F)(F)F)cc1C(N)=O [Compound 1-13, 2-Aminocarbonylamino-5-(2-trifluoromethylphenyl)pyrrole-3-carboxamide] | 93
8 | N#Cc1ccc(-c2cc(C(N)=O)c(NC(N)=O)[nH]2)cc1 [Compound 1-15, 2-Aminocarbonylamino-5-(4-cyanophenyl) pyrrole-3-carboxamide] | 80
9 | NC(=O)Nc1[nH]c(-c2cccs2)cc1C(N)=O [Compound 1-16, 2-Aminocarbonylamino-5-(thiophen-2-yl) pyrrole-3-carboxamide] | 94
10 | COc1ccc(OC)c(-c2cc(C(N)=O)c(NC(N)=O)[nH]2)c1 [Compound 1-17, 2-Aminocarbonylamino-5-(2,5-dimethoxyphenyl) pyrrole-3-carboxamide] | 96
11 | COc1ccc(F)cc1-c1cc(C(N)=O)c(NC(N)=O)[nH]1 [Compound 1-19, 2-Aminocarbonylamino-5-(5-fluoro-2-methoxyphenyl)pyrrole-3-carboxamide] | 100
12 | Cc1c(-c2ccc(Br)cc2)[nH]c(NC(N)=O)c1C(N)=O [Compound 1-21, 2-Aminocarbonylamino-5-(4-bromophenyl)-4-methylpyrrole-3-carboxamide] | 88
13 | COc1cc(C)c(Cl)cc1-c1cc(C(N)=O)c(NC(N)=O)[nH]1 [Compound 1-24, 2-Aminocarbonylamino-5-(5-chloro-2-methoxy-4-methylphenyl)pyrrole-3-carboxamide] | 99
14 | NC(=O)Nc1[nH]c(-c2cc(Cl)ccc2Cl)cc1C(N)=O [Compound 1-27, 2-Aminocarbonylamino-5-(2,5-dichlorophenyl) pyrrole-3-carboxamide] | 100
15 | NC(=O)Nc1[nH]c(-c2cccc(F)c2)cc1C(N)=O [Compound 1-28, 2-Aminocarbonylamino-5-(3-fluorophenyl) pyrrole-3-carboxamide] | 97
16 | CCOC(=O)c1ccc(-c2cc(C(N)=O)c(NC(N)=O)[nH]2)cc1 [Compound 1-30, 2-Aminocarbonylamino-5-(4-ethoxycarbonylphenyl) pyrrole-3-carboxamide] | 90
17 | NC(=O)Nc1[nH]c(-c2ccc(F)c(Cl)c2)cc1C(N)=O [Compound 1-36, 2-Aminocarbonylamino-5-(3-chloro-4-fluorophenyl)pyrrole-3-carboxamide] | 100
18 | COc1ccc(-c2cc(C(N)=O)c(NC(N)=O)[nH]2)cc1Cl [Compound 1-37, 2-Aminocarbonylamino-5-(3-chloro-4-methoxyphenyl)pyrrole-3-carboxamide] | 98
19 | N#Cc1cccc(-c2cc(C(N)=O)c(NC(N)=O)[nH]2)c1 [Compound 1-39, 2-Aminocarbonylamino-5-(3-cyanophenyl) pyrrole-3-carboxamide] | 99

Row | SMILES | inhibition at 10 µM [%]
20 | NC(=O)Nc1[nH]c(-c2ccccc2Cl)cc1C(N)=O [Compound 1-40, 2-Aminocarbonylamino-5-(2-chlorophenyl) pyrrole-3-carboxamide] | 99
21 | Cc1ccc(-c2cc(C(N)=O)c(NC(N)=O)[nH]2)s1 [Compound 1-41, 2-Aminocarbonylamino-5-(5-methylthiophen-2-yl) pyrrole-3-carboxamide] | 96
22 | Cc1ccccc1-c1cc(C(N)=O)c(NC(N)=O)[nH]1 [Compound 1-42, 2-Aminocarbonylamino-5-(2-methylphenyl) pyrrole-3-carboxamide] | 94
23 | CSc1cccc(-c2cc(C(N)=O)c(NC(N)=O)[nH]2)c1 [Compound 1-43, 2-Aminocarbonylamino-5-(3-methylthiophenyl) pyrrole-3-carboxamide] | 88
24 | CCSc1cccc(-c2cc(C(N)=O)c(NC(N)=O)[nH]2)c1 [Compound 1-44, 2-Aminocarbonylamino-5-(3-ethylthiophenyl) pyrrole-3-carboxamide] | 92
25 | NC(=O)Nc1[nH]c(-c2ccccc2F)cc1C(N)=O [Compound 1-45, 2-Aminocarbonylamino-5-(2-fluorophenyl) pyrrole-3-carboxamide] | 95
26 | NC(=O)Nc1[nH]c(-c2ccc(Cl)s2)cc1C(N)=O [Compound 1-48, 2-Aminocarbonylamino-5-(5-chlorothiophen-2-yl)pyrrole-3-carboxamide] | 98
27 | Cc1cc(-c2cc(C(N)=O)c(NC(N)=O)[nH]2)c(C)s1 [Compound 1-51, 2-Aminocarbonylamino-5-(2,5-dimethylthiophen-3-yl)pyrrole-3-carboxamide] | 96
28 | NC(=O)Nc1[nH]c(-c2cc(F)c(F)cc2F)cc1C(N)=O [Compound 1-52, 2-Aminocarbonylamino-5-(2,4,5-trifluorophenyl) pyrrole-3-carboxamide] | 93
29 | NC(=O)Nc1[nH]c(-c2cc(F)ccc2F)cc1C(N)=O [Compound 1-53, 2-Aminocarbonylamino-5-(2,5-difluorophenyl) pyrrole-3-carboxamide] | 94
30 | NC(=O)Nc1[nH]c(-c2ccccc2O)cc1C(N)=O [Compound 3-1, 2-Aminocarbonylamino-5-(2-hydroxyphenyl)pyrrole-3-carboxamide] | 95
31 | NC(=O)Nc1[nH]c(-c2cc(F)ccc2O)cc1C(N)=O [Compound 3-3, 2-Aminocarbonylamino-5-(5-fluoro-2-hydroxyphenyl)pyrrole-3-carboxamide] | 100
32 | NC(=O)Nc1[nH]c(-c2cc(Cl)ccc2O)cc1C(N)=O [Compound 3-4, 2-Aminocarbonylamino-5-(5-chloro-2-hydroxyphenyl)pyrrole-3-carboxamide] | 100
33 | N#CCOc1ccccc1-c1cc(C(N)=O)c(NC(N)=O)[nH]1 [Compound 4-1, 2-Aminocarbonylamino-5-(2-cyanomethyloxyphenyl)pyrrole-3-carboxamide] | 96
34 | N#CCOc1cccc(-c2cc(C(N)=O)c(NC(N)=O)[nH]2)c1 [Compound 4-9, 2-Aminocarbonylamino-5-(3-cyanomethyloxyphenyl) pyrrole-3-carboxamide] | 89
35 | CCOc1ccccc1-c1cc(C(N)=O)c(NC(N)=O)[nH]1 [Compound 4-11, 2-Aminocarbonylamino-5-(2-ethoxyphenyl)pyrrole-3-carboxamide] | 97
36 | NC(=O)Nc1[nH]c(-c2ccccc2OCc2cccnc2)cc1C(N)=O [Compound 4-15, 2-Aminocarbonylamino-5-[2-(pyridin-3-ylmethyloxy)phenyl]pyrrole-3-carboxamide] | 91
37 | NC(=O)Nc1[nH]c(-c2ccccc2OCC2CC2)cc1C(N)=O [Compound 4-23, 2-Aminocarbonylamino-5-(2-cyclopropylmethyloxyphenyl) pyrrole-3-carboxamide] | 97

Same assay, conditions: test compound at 10 μM, TNF-α stimulation 16 hours, inhibition ratio of 100% or more is indicated as 100%

Row | SMILES | IL-6 production inhibition ratio [%]
38 | COc1ccc(Cl)cc1-c1cc(C(N)=O)c(NC(N)=O)[nH]1 [Compound 1-22, 2-Aminocarbonylamino-5-(5-chloro-2-methoxyphenyl)pyrrole-3-carboxamide] | 100

Reference: patent US7977371B2, “Pyrrole derivative having ureido group and aminocarbonyl group as substituents” (Santen Pharmaceutical Co., Ltd., priority 2007, dated 2011)
